Experimental data: patent publication US20250230193A1, “CYCLIC COMPOUND HAVING SELECTIVE KRAS INHIBITORY EFFECT ON HRAS AND NRAS” (CHUGAI SEIYAKU KABUSHIKI KAISHA, priority 2022, published 2025)

Tests used:
[1] = target: GDP-bound NRAS wild-type protein (Homo sapiens, UniProt P01111); experiment: Binding to NRAS by surface plasmon resonance (SPR), Single Cycle Kinetics; conditions: KD ratio, GDP-bound NRAS wild-type vs GDP-bound KRAS wild-type, SPR
[2] = target: GDP-bound HRAS wild-type protein (Homo sapiens, UniProt P01112); experiment: Binding to HRAS by surface plasmon resonance (SPR), Single Cycle Kinetics; conditions: KD ratio, GDP-bound HRAS wild-type vs GDP-bound KRAS wild-type, SPR
Sequence of GDP-bound HRAS wild-type protein (P01112 whole entry): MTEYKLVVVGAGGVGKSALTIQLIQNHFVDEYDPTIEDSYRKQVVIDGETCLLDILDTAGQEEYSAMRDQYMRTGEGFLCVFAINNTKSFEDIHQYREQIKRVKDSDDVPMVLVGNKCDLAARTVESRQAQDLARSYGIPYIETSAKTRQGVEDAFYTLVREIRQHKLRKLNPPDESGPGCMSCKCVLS

Sequence of GDP-bound NRAS wild-type protein (P01111 whole entry): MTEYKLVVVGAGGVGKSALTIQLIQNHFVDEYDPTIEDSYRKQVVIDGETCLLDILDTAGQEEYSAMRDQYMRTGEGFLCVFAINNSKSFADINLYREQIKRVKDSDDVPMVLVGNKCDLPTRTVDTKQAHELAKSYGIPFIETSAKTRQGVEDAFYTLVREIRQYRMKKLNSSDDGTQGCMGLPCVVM

SMILES	NRAS/KRAS (ratio of KD value with respect to NRAS to KD value with respect to KRAS) [1]	HRAS/KRAS (ratio of KD value with respect to HRAS to KD value with respect to KRAS) [2]
CCO[C@@H]1C[C@H]2C(=O)NC3(CCC3)C(=O)N(C)[C@@H](C3CCCC3)C(=O)N(C)[C@H](C(=O)N(C)C)CC(=O)N(C)[C@@H](Cc3cccs3)C(=O)N[C@@H]([C@@H](C)CC)C(=O)N(C)CC(=O)N(C)[C@H]3CCCCCN(C3=O)[C@@H](Cc3ccc(C(F)(F)F)cc3)C(=O)N(C)CC(=O)N[C@@H](CCc3cc(F)c(C(F)(F)F)c(F)c3)C(=O)N2C1 [PP1169]	B (a compound having 3 or more and less than 10 is denoted as B)	B (a compound having 3 or more and less than 10 is denoted as B)
CCO[C@@H]1C[C@H]2C(=O)NC3(CCC3)C(=O)N(C)[C@@H](C3CCCC3)C(=O)N(C)[C@H](C(=O)N(C)C)CC(=O)N(C)[C@@H](Cc3ccccc3C#N)C(=O)N[C@@H]([C@@H](C)CC)C(=O)N(C)CC(=O)N(C)[C@H]3CCCCCN(C3=O)[C@@H](Cc3ccc(C(F)(F)F)cc3)C(=O)N(C)CC(=O)N[C@@H](CCc3cc(F)c(C(F)(F)F)c(F)c3)C(=O)N2C1 [PP1171]	B (a compound having 3 or more and less than 10 is denoted as B)	B (a compound having 3 or more and less than 10 is denoted as B)
CCO[C@@H]1C[C@H]2C(=O)NC3(CCC3)C(=O)N(C)[C@@H](C3CCCC3)C(=O)N(C)[C@H](C(=O)N(C)C)CC(=O)N(C)[C@@H](Cc3cccc(C#N)c3)C(=O)N[C@@H]([C@@H](C)CC)C(=O)N(C)CC(=O)N(C)[C@H]3CCCCCN(C3=O)[C@@H](Cc3ccc(C(F)(F)F)cc3)C(=O)N(C)CC(=O)N[C@@H](CCc3cc(F)c(C(F)(F)F)c(F)c3)C(=O)N2C1 [PP1172]	B (a compound having 3 or more and less than 10 is denoted as B)	B (a compound having 3 or more and less than 10 is denoted as B)
CCO[C@@H]1C[C@H]2C(=O)NC3(CCC3)C(=O)N(C)[C@@H](C3CCCC3)C(=O)N(C)[C@H](C(=O)N(C)C)CC(=O)N(C)[C@@H](Cc3ccc(C#N)cc3)C(=O)N[C@@H]([C@@H](C)CC)C(=O)N(C)CC(=O)N(C)[C@H]3CCCCCN(C3=O)[C@@H](Cc3ccc(C(F)(F)F)cc3)C(=O)N(C)CC(=O)N[C@@H](CCc3cc(F)c(C(F)(F)F)c(F)c3)C(=O)N2C1 [PP1173]	B (a compound having 3 or more and less than 10 is denoted as B)	B (a compound having 3 or more and less than 10 is denoted as B)
CCO[C@@H]1C[C@H]2C(=O)NC3(CCC3)C(=O)N(C)[C@@H](C3CCCC3)C(=O)N(C)[C@H](C(=O)N(C)C)CC(=O)N(C)[C@@H](Cc3ccc(Cl)c(Cl)c3)C(=O)N[C@@H]([C@@H](C)CC)C(=O)N(C)CC(=O)N(C)[C@H]3CCCCCN(C3=O)[C@@H](Cc3ccc(C(F)(F)F)cc3)C(=O)N(C)CC(=O)N[C@@H](CCc3cc(F)c(C(F)(F)F)c(F)c3)C(=O)N2C1 [PP1174]	B (a compound having 3 or more and less than 10 is denoted as B)	B (a compound having 3 or more and less than 10 is denoted as B)
CCO[C@@H]1C[C@H]2C(=O)NC3(CCC3)C(=O)N(C)[C@@H](C3CCCC3)C(=O)N(C)[C@H](C(=O)N3CCOCC3)CC(=O)N(C)[C@@H](C)C(=O)N[C@@H]([C@@H](C)CC)C(=O)N(C)CC(=O)N(C)[C@H]3CCCCCN(C3=O)[C@@H](Cc3ccc(F)cc3)C(=O)N(C)CC(=O)N[C@@H](CCc3cc(F)c(C(F)(F)F)c(F)c3)C(=O)N2C1 [PP1175]	B (a compound having 3 or more and less than 10 is denoted as B)	B (a compound having 3 or more and less than 10 is denoted as B)
CCO[C@@H]1C[C@H]2C(=O)NC3(CCC3)C(=O)N(C)[C@@H](C3CCCC3)C(=O)N(C)[C@H](C(=O)N3CCOCC3)CC(=O)N(C)[C@@H](CC)C(=O)N[C@@H]([C@@H](C)CC)C(=O)N(C)CC(=O)N(C)[C@H]3CCCCCN(C3=O)[C@@H](Cc3ccc(F)cc3)C(=O)N(C)CC(=O)N[C@@H](CCc3cc(F)c(C(F)(F)F)c(F)c3)C(=O)N2C1 [PP1176]	B (a compound having 3 or more and less than 10 is denoted as B)	B (a compound having 3 or more and less than 10 is denoted as B)
CCO[C@@H]1C[C@H]2C(=O)NC3(CCC3)C(=O)N(C)[C@@H](C3CCCC3)C(=O)N(C)[C@H](C(=O)N3CCOCC3)CC(=O)N(C)[C@@H](CC(F)F)C(=O)N[C@@H]([C@@H](C)CC)C(=O)N(C)CC(=O)N(C)[C@H]3CCCCCN(C3=O)[C@@H](Cc3ccc(F)cc3)C(=O)N(C)CC(=O)N[C@@H](CCc3cc(F)c(C(F)(F)F)c(F)c3)C(=O)N2C1 [PP1177]	B (a compound having 3 or more and less than 10 is denoted as B)	B (a compound having 3 or more and less than 10 is denoted as B)
CCO[C@@H]1C[C@H]2C(=O)NC3(CCC3)C(=O)N(C)[C@@H](C3CCCC3)C(=O)N(C)[C@H](C(=O)N3CCOCC3)CC(=O)N(C)[C@@H](CC3CC3)C(=O)N[C@@H]([C@@H](C)CC)C(=O)N(C)CC(=O)N(C)[C@H]3CCCCCN(C3=O)[C@@H](Cc3ccc(F)cc3)C(=O)N(C)CC(=O)N[C@@H](CCc3cc(F)c(C(F)(F)F)c(F)c3)C(=O)N2C1 [PP1178]	B (a compound having 3 or more and less than 10 is denoted as B)	B (a compound having 3 or more and less than 10 is denoted as B)
CCO[C@@H]1C[C@H]2C(=O)NC3(CCC3)C(=O)N(C)[C@@H](C3CCCC3)C(=O)N(C)[C@H](C(=O)N3CCOCC3)CC(=O)N(C)[C@@H](COC)C(=O)N[C@@H]([C@@H](C)CC)C(=O)N(C)CC(=O)N(C)[C@H]3CCCCCN(C3=O)[C@@H](Cc3ccc(F)cc3)C(=O)N(C)CC(=O)N[C@@H](CCc3cc(F)c(C(F)(F)F)c(F)c3)C(=O)N2C1 [PP1179]	B (a compound having 3 or more and less than 10 is denoted as B)	B (a compound having 3 or more and less than 10 is denoted as B)
CCO[C@@H]1C[C@H]2C(=O)NC3(CCC3)C(=O)N(C)[C@@H](C3CCCC3)C(=O)N(C)[C@H](C(=O)N3CCOCC3)CC(=O)N(C)[C@@H](CCOC)C(=O)N[C@@H]([C@@H](C)CC)C(=O)N(C)CC(=O)N(C)[C@H]3CCCCCN(C3=O)[C@@H](Cc3ccc(F)cc3)C(=O)N(C)CC(=O)N[C@@H](CCc3cc(F)c(C(F)(F)F)c(F)c3)C(=O)N2C1 [PP1180]	B (a compound having 3 or more and less than 10 is denoted as B)	B (a compound having 3 or more and less than 10 is denoted as B)
CCO[C@@H]1C[C@H]2C(=O)NC3(CCC3)C(=O)N(C)[C@@H](C3CCCC3)C(=O)N(C)[C@H](C(=O)N3CCOCC3)CC(=O)N(C)[C@@H](Cc3cccs3)C(=O)N[C@@H]([C@@H](C)CC)C(=O)N(C)CC(=O)N(C)[C@H]3CCCCCN(C3=O)[C@@H](Cc3ccc(F)cc3)C(=O)N(C)CC(=O)N[C@@H](CCc3cc(F)c(C(F)(F)F)c(F)c3)C(=O)N2C1 [PP1183]	B (a compound having 3 or more and less than 10 is denoted as B)	B (a compound having 3 or more and less than 10 is denoted as B)
